From ChEMBL document CHEMBL1145004, “3-(4-[[Benzyl(methyl)amino]methyl]phenyl)-6,7-dimethoxy-2H-2-chromenone (AP2238) inhibits both acetylcholinesterase and acetylcholinesterase-induced beta-amyloid aggregation: a dual function lead for Alzheimer's disease therapy” (J Med Chem, 2003) come the findings set out here.

Broadly, the IC50 is the midpoint of a concentration-inhibition curve. A word on the Ki: it is the equilibrium dissociation constant of an inhibitor or competing ligand from its target.

The target of one test is Acetylcholinesterase (Homo sapiens, UniProt P22303). Nature of the test: Inhibitory potency was evaluated against recombinant human AChE.
Chain of Acetylcholinesterase (P22303 whole entry): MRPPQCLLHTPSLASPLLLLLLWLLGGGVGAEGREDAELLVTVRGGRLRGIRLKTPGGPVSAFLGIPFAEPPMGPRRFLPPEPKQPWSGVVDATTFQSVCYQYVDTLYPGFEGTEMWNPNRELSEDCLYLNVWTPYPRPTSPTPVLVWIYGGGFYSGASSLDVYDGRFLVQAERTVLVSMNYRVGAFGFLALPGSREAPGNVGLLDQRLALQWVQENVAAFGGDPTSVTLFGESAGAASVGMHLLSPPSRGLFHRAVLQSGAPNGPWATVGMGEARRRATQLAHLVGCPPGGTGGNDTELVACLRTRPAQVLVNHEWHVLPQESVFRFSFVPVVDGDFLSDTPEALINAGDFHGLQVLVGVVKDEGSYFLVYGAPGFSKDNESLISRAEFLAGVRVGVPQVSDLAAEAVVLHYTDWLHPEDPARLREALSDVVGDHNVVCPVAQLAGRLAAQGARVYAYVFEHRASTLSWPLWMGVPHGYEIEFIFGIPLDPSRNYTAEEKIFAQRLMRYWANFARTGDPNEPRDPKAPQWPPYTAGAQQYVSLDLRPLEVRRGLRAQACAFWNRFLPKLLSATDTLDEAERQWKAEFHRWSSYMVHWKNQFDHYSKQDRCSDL
Another test concerns the target Cholinesterase (Homo sapiens, UniProt P06276). Nature of the test: Inhibitory potency was evaluated against isolated Butyrylcholinesterase.

Chain of Cholinesterase (P06276 whole entry): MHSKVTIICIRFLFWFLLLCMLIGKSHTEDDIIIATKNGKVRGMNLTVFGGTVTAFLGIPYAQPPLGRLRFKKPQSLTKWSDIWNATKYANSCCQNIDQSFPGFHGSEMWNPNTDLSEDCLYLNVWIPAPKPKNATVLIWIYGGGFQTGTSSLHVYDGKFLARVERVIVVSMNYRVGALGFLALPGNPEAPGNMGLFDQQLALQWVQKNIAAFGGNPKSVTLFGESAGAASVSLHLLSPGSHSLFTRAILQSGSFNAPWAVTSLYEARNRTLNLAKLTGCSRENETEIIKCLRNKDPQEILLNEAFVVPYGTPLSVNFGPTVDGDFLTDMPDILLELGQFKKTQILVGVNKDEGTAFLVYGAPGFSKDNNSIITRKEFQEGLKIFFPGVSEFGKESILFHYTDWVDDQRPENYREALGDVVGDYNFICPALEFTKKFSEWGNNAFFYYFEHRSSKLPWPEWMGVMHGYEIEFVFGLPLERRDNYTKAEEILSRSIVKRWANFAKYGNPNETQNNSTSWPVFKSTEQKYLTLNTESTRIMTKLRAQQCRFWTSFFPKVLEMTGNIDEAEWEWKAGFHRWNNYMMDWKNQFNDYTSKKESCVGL

Regarding `COc1cc2cc(-c3ccc(CN(C)Cc4ccccc4)cc3)c(=O)oc2cc1OC`, on Acetylcholinesterase, the IC50 was 44.5 nM and the Ki stood at 21.7 nM. Further, the IC50 against Cholinesterase is 48900 nM.
